We go through nine compounds from PubChem BioAssay AID216 (DTP/NCI, 2004).

This assay relates to BDF1 mice, P288 leukemia ip, survival T/C. Description: NCI In Vivo Anticancer Drug Screen. Data for tumor model P288 Lymphocytic Leukemia (intraperitoneal) in B6D2F1 (BDF1) mice. Particulars: higher = longer survival. The method, then: The antitumor activity of compounds was measured in mice bearing transplantable tumors. Survival or tumor size were measured and the results are expressed as the measurement made in the treated group (T) divided by the measurement made in the vehicle treated control group (C). The tumor model used in this assay is P288 Lymphocytic Leukemia (intraperitoneal) in B6D2F1 (BDF1) mice

Where [1] appears, read: endpoint: survival time, mean or median, dose: 50.0 mg/kg/injection, schedule: Q01DX010 (ip), vehicle: saline.
The mark [2] stands for this setting: endpoint: survival time, mean or median, dose: 100.0 mg/kg/injection, schedule: Q01DX010 (ip), vehicle: saline.
[3] abbreviates: endpoint: survival time, mean or median, dose: 200.0 mg/kg/injection, schedule: Q01DX010 (ip), vehicle: saline.
The mark [4] stands for this setting: endpoint: survival time, mean or median, dose: 400.0 mg/kg/injection, schedule: Q01DX010 (ip), vehicle: saline.
[5] abbreviates: endpoint: survival time, mean or median, dose: 6.25 mg/kg/injection, schedule: Q01DX Z (ip), vehicle: carboxymethylcellulose (CMC).
Where [6] appears, read: endpoint: survival time, mean or median, dose: 12.5 mg/kg/injection, schedule: Q01DX Z (ip), vehicle: carboxymethylcellulose (CMC).
Where [7] appears, read: endpoint: survival time, mean or median, dose: 25.0 mg/kg/injection, schedule: Q01DX Z (ip), vehicle: carboxymethylcellulose (CMC).

The structures appear in SMILES notation. Values joined by “and” are separate entries in the source; they are usually repeats but may differ in a detail not shown here. Equal entries are not always repeated. Toxic doses and inconclusive results are not listed.

As to `OC(CBr)C(O)C(O)C(O)CBr` (stereo not drawn), the T/C runs as follows: under setting [1], 114 % of control and 94 % of control; under setting [2], 114 % of control and 94 % of control; under setting [3], 114 % of control and 94 % of control; under setting [4], 105 % of control and 114 % of control.

`O=c1cnn(C2OC(CO)C(O)C2O)c(=O)[nH]1` (stereo not drawn): the T/C by setting is: (endpoint: survival time, mean or median, dose: 15.62 mg/kg/injection, schedule: Q01DX Z (ip), vehicle: water) 101 % of control; (endpoint: survival time, mean or median, dose: 31.25 mg/kg/injection, schedule: Q01DX Z (ip), vehicle: water) 101 % of control; (endpoint: survival time, mean or median, dose: 62.5 mg/kg/injection, schedule: Q01DX Z (ip), vehicle: water) 104 % of control; (endpoint: survival time, mean or median, dose: 125.0 mg/kg/injection, schedule: Q01DX Z (ip), vehicle: water) 113 % of control and 95 % of control; under setting [3], 111 % of control and 112 % of control; (endpoint: survival time, mean or median, dose: 250.0 mg/kg/injection, schedule: Q01DX Z (ip), vehicle: water) 103 % of control and 123 % of control. The T/C reads like this: under setting [4], 118 % of control; (endpoint: survival time, mean or median, dose: 500.0 mg/kg/injection, schedule: Q01DX Z (ip), vehicle: water) 94 % of control; (endpoint: survival time, mean or median, dose: 800.0 mg/kg/injection, schedule: Q01DX010 (ip), vehicle: saline) 122 % of control; (endpoint: survival time, mean or median, dose: 1000.0 mg/kg/injection, schedule: Q01DX Z (ip), vehicle: water) 103 % of control; (endpoint: survival time, mean or median, dose: 1600.0 mg/kg/injection, schedule: Q01DX010 (ip), vehicle: saline) 112 % of control and 94 % of control.

Consider `O=C(Nc1ccc(NC2=NCCN2)cc1)c1ccc(C(=O)Nc2ccc(NC3=NCCN3)cc2)cc1`, for which the T/C by setting is: (endpoint: survival time, mean or median, dose: 0.5 mg/kg/injection, schedule: Q01DX Z (ip), vehicle: saline) 97 % of control; (endpoint: survival time, mean or median, dose: 1.0 mg/kg/injection, schedule: Q01DX Z (ip), vehicle: saline) 109 % of control; (endpoint: survival time, mean or median, dose: 2.0 mg/kg/injection, schedule: Q01DX010 (ip), vehicle: saline) 157 % of control and 184 % of control; (endpoint: survival time, mean or median, dose: 2.0 mg/kg/injection, schedule: Q01DX Z (ip), vehicle: saline) 114 % of control; (endpoint: survival time, mean or median, dose: 4.0 mg/kg/injection, schedule: Q01DX010 (ip), vehicle: saline) 189 % of control and 194 % of control; (endpoint: survival time, mean or median, dose: 4.0 mg/kg/injection, schedule: Q01DX Z (ip), vehicle: saline) 152 % of control. Further, the T/C is 247 % of control and 284 % of control (endpoint: survival time, mean or median, dose: 8.0 mg/kg/injection, schedule: Q01DX010 (ip), vehicle: saline); 203 % of control (endpoint: survival time, mean or median, dose: 8.0 mg/kg/injection, schedule: Q01DX Z (ip), vehicle: saline); 115 % of control (endpoint: survival time, mean or median, dose: 16.0 mg/kg/injection, schedule: Q01DX010 (ip), vehicle: saline); 105 % of control (endpoint: survival time, mean or median, dose: 32.0 mg/kg/injection, schedule: Q01DX Z (ip), vehicle: saline).

For `CN(Cc1cnc2nc(N)nc(N)c2n1)c1ccc(C(=O)N[C@@H](CCC(=O)O)C(=O)O)cc1`, the T/C is, setting by setting: (endpoint: median survival time, dose: 0.38 mg/kg/injection, schedule: Q01DX009 (ip), vehicle: sodium bicarbonate) 183 % of control; (endpoint: median survival time, dose: 0.75 mg/kg/injection, schedule: Q01DX009 (ip), vehicle: sodium bicarbonate) 191 % of control; (endpoint: median survival time, dose: 1.5 mg/kg/injection, schedule: Q01DX009 (ip), vehicle: sodium bicarbonate) 220 % of control; (endpoint: median survival time, dose: 3.0 mg/kg/injection, schedule: Q01DX009 (ip), vehicle: sodium bicarbonate) 91 % of control; (endpoint: median survival time, dose: 6.0 mg/kg/injection, schedule: Q01DX009 (ip), vehicle: sodium bicarbonate) 154 % of control; (endpoint: survival time, mean or median, dose: 0.31 mg/kg/injection, schedule: Q01DX Z (ip), vehicle: other) 123 % of control. Further, the T/C reads like this: (endpoint: survival time, mean or median, dose: 0.38 mg/kg/injection, schedule: Q01DX010 (ip), vehicle: other) 162 % of control and 167 % of control and 193 % of control; (endpoint: survival time, mean or median, dose: 0.62 mg/kg/injection, schedule: Q01DX Z (ip), vehicle: other) 189 % of control and 222 % of control; (endpoint: survival time, mean or median, dose: 0.75 mg/kg/injection, schedule: Q01DX010 (ip), vehicle: other) 176 % of control and 228 % of control and 235 % of control; (endpoint: survival time, mean or median, dose: 1.25 mg/kg/injection, schedule: Q01DX Z (ip), vehicle: other) 219 % of control and 256 % of control and 261 % of control; (endpoint: survival time, mean or median, dose: 1.5 mg/kg/injection, schedule: Q01DX010 (ip), vehicle: other) 229 % of control and 230 % of control (2×); (endpoint: survival time, mean or median, dose: 1.5 mg/kg/injection, schedule: Q01DX Z (ip), vehicle: other) 158 % of control. Further, the T/C is, setting by setting: (endpoint: survival time, mean or median, dose: 2.5 mg/kg/injection, schedule: Q01DX Z (ip), vehicle: other) 205 % of control and 244 % of control; (endpoint: survival time, mean or median, dose: 3.0 mg/kg/injection, schedule: Q01DX010 (ip), vehicle: other) 186 % of control; (endpoint: survival time, mean or median, dose: 5.0 mg/kg/injection, schedule: Q01DX Z (ip), vehicle: other) 116 % of control.

Consider `CCOC(=O)NP(=O)(N1CC1(C)C)N1CC1(C)C` (stereo not drawn), for which the T/C by setting is: (endpoint: survival time, mean or median, dose: 16.0 mg/kg/injection, schedule: Q01DX Z (ip), vehicle: carboxymethylcellulose (CMC)) 95 % of control; (endpoint: survival time, mean or median, dose: 31.0 mg/kg/injection, schedule: Q01DX Z (ip), vehicle: carboxymethylcellulose (CMC)) 98 % of control; (endpoint: survival time, mean or median, dose: 62.5 mg/kg/injection, schedule: Q01DX Z (ip), vehicle: carboxymethylcellulose (CMC)) 112 % of control; (endpoint: survival time, mean or median, dose: 250.0 mg/kg/injection, schedule: Q01DX Z (ip), vehicle: carboxymethylcellulose (CMC)) 180 % of control; (endpoint: survival time, mean or median, dose: 500.0 mg/kg/injection, schedule: Q01DX Z (ip), vehicle: carboxymethylcellulose (CMC)) 117 % of control.

On to `Cc1cc2nc3c(=O)[nH]c(=O)nc-3n(CC(O)C(O)C(O)C(O)CO)c2cc1C` (stereo not drawn), for which the T/C is, setting by setting: (endpoint: survival time, mean or median, dose: 25.0 mg/kg/injection, schedule: Q01DX010 (ip), vehicle: saline) 100 % of control; under setting [1], 118 % of control; under setting [2], 106 % of control and 94 % of control; under setting [3], 106 % of control and 94 % of control; under setting [4], 112 % of control.

`C[n+]1c2ccccc2nc2c(N)cc(N)cc21`: the T/C is 114 % of control (endpoint: survival time, mean or median, dose: 3.1 mg/kg/injection, schedule: Q01DX Z (ip), vehicle: carboxymethylcellulose (CMC)); 97 % of control under setting [5]; 115 % of control (endpoint: survival time, mean or median, dose: 6.3 mg/kg/injection, schedule: Q01DX Z (ip), vehicle: carboxymethylcellulose (CMC)); 104 % of control and 105 % of control under setting [6]; 117 % of control and 96 % of control under setting [7].

Regarding `CN(C)c1ccc(/C=C/c2ccnc3ccccc23)cc1`, the T/C (endpoint: survival time, mean or median, dose: 0.2 mg/kg/injection, schedule: Q01DX Z (ip), vehicle: water) was 117 % of control; the T/C (endpoint: survival time, mean or median, dose: 0.8 mg/kg/injection, schedule: Q01DX Z (ip), vehicle: water) is 98 % of control; the T/C (endpoint: survival time, mean or median, dose: 1.6 mg/kg/injection, schedule: Q01DX Z (ip), vehicle: water) was 92 % of control; the T/C (endpoint: survival time, mean or median, dose: 3.1 mg/kg/injection, schedule: Q01DX Z (ip), vehicle: water) was 91 % of control; the T/C (endpoint: survival time, mean or median, dose: 5.0 mg/kg/injection, schedule: Q01DX010 (ip), vehicle: saline) is 88 % of control; the T/C under setting [5] is 108 % of control. In addition, the T/C is, setting by setting: (endpoint: survival time, mean or median, dose: 6.3 mg/kg/injection, schedule: Q01DX Z (ip), vehicle: water) 87 % of control; (endpoint: survival time, mean or median, dose: 10.0 mg/kg/injection, schedule: Q01DX010 (ip), vehicle: saline) 88 % of control and 90 % of control; under setting [6], 108 % of control; (endpoint: survival time, mean or median, dose: 20.0 mg/kg/injection, schedule: Q01DX010 (ip), vehicle: saline) 88 % of control; under setting [7], 114 % of control; (endpoint: survival time, mean or median, dose: 40.0 mg/kg/injection, schedule: Q01DX010 (ip), vehicle: saline) 88 % of control and 90 % of control. The T/C (endpoint: survival time, mean or median, dose: 50.0 mg/kg/injection, schedule: Q01DX Z (ip), vehicle: carboxymethylcellulose (CMC)) is 111 % of control.

Take `N[C@@H](Cc1ccc(N(CCCl)CCCl)cc1)C(=O)O`: the T/C reads like this: (endpoint: survival time, mean or median, dose: 0.62 mg/kg/injection, schedule: Q01DX Z (ip), vehicle: saline) 151 % of control; (endpoint: survival time, mean or median, dose: 1.25 mg/kg/injection, schedule: Q01DX Z (ip), vehicle: saline) 181 % of control and 196 % of control; (endpoint: survival time, mean or median, dose: 2.5 mg/kg/injection, schedule: Q01DX Z (ip), vehicle: saline) 172 % of control; (endpoint: survival time, mean or median, dose: 5.0 mg/kg/injection, schedule: Q01DX Z (ip), vehicle: saline) 207 % of control; (endpoint: survival time, mean or median, dose: 10.0 mg/kg/injection, schedule: Q01DX Z (ip), vehicle: saline) 108 % of control and 113 % of control.
